Among the data in US11453660B2, “Androgen receptor and glucocorticoid receptor modulators” (ONCOSTELLAE, S.L., priority 2017, dated 2022) are IC50 values, retold here.

Each structure is given as a SMILES string.

For the first test, the target named is T1, human androgen receptor (Homo sapiens, UniProt P10275, T878A).
T1 construct: endogenously expressed human androgen receptor using the LnCap prostate cancer cell line; endogenous in cells; host or cells: LNCaP prostate cancer cell line (whole cells)
T1 sequence (P10275 1-920 T878A): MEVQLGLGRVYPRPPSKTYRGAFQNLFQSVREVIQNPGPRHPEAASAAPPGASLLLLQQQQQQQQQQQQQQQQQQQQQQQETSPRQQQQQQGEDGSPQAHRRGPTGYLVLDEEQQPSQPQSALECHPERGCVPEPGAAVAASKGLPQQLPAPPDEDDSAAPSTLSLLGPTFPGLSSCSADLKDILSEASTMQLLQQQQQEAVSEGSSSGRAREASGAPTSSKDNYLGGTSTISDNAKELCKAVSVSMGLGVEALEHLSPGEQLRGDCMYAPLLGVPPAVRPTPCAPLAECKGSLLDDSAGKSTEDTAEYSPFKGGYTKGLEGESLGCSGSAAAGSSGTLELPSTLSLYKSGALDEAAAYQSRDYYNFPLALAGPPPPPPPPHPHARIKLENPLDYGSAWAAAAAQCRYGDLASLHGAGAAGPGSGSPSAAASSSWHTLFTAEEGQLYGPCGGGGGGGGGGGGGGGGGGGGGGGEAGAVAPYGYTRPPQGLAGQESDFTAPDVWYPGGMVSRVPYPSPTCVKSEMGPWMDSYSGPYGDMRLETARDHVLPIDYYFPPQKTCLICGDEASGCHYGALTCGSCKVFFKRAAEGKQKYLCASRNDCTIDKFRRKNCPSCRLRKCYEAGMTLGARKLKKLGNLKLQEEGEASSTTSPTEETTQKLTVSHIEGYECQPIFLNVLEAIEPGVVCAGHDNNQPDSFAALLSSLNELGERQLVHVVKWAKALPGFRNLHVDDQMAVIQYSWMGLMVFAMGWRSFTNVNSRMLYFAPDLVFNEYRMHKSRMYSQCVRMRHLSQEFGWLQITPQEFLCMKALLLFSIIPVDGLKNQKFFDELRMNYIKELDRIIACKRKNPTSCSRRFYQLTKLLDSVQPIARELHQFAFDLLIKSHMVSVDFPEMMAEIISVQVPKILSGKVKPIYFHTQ
In words: Human Androgen Receptor Binding (radioligand binding, LnCap prostate cancer cell line). To be noted: LnCap cells, displacement of [^3H]-methyltrienolone, 2 hours at 37° C.; read-out: AR LNCaP. As to the method:
Human Androgen Receptor Binding
Radioligand binding studies were carried out on endogenously expressed human androgen receptor using the LnCap prostate cancer cell line. The test is based on measuring radioactively labelled AR ligand [^3H]-methyltrienolone that gets displaced by increasing concentrations of test compound. The test is performed in 96-well plates (Falcon, #353072). Positive and negative controls are also required in each analyzed plate to evaluate the total and non-specific binding binding of the radioligand to the receptor. Cells (60000 per well) were incubated for 24 hours before executing the experiment at 37° C. and in a 5% CO2 atmosphere. Medium was replaced by assay buffer (RPMI-640 (ATCC #30-2001) supplemented with 0.1% bovine serum albumin (Sigma #8806-56) and Triamcinolone acetonide (Sigma #T6501)). The compounds at the desired concentrations and [^3H]methyltrienolone (Perkin Elmer #NET590) were added to the wells.
In order to obtain a dose-response curve and calculate the potency of inhibition (expressed as IC50) for AR, a series of 1:10 dilutions in test in 1× buffer from 10 μM to 0.1 nM for each compound was carried out.
Cells were incubated for 2 hours at 37° C. in a 5% CO2 atmosphere and then washed twice with ice-cold HBSS. Then cells were lysed with solubilization buffer (Hank's Balanced Salt Solution (HBSS, Sigma #H6648), 0.5% Sodium dodecyl sulfate 0.5% (SDS, Sigma #L7390-500G, Lote: 078K0102) and 20% Glycerol (Sigma Aldrich, #G2025) for 30 minutes at RT. 75 μL aliquots were taken from each well and transferred to a 96-well flexiplate (Perkin Elmer #1450-401) and mixed with 100 μL of scintillation cocktail (Optiphase supermix, PerkinElmer, #1200-439). Plates are shaken for 60 minutes and radioactivity was measured in a beta scintillation counter (Microbeta Trilux, Perkin Elmer).
For `CC(=O)C1=C(C)NC(C2CC2)=C(C(=O)OCc2ccccc2)C1c1csc2ncccc12` (stereo not shown) [Example J31, Benzyl 5-acetyl-2-cyclopropyl-6-methyl-4-(thieno[2,3-b]pyridin-3-yl)-1,4-dihydropyridine-3-carboxylate], the IC50 was at least 1000 nM.
Still for that read-out and setting: with `COC(=O)C1=C(C2CC2)NC(C)=C(C(C)=O)C1c1csc2c(C(=O)NC3CC3)cccc12` (stereo not shown) [Example J27, Methyl 5-acetyl-2-cyclopropyl-4-(7-(cyclopropylcarbamoyl)benzo[b]thiophen-3-yl)-6-methyl-1,4-dihydropyridine-3-carboxylate] the figure was at least 1000 nM.
On the same count and under the same terms, the value for `COC(=O)C1=C(C)NC(CO)=C(C(=O)OC)C1c1csc2c(C#N)cccc12` (stereo not shown) [Example C120, Dimethyl 4-(7-cyanobenzo[b]thiophen-3-yl)-2-(hydroxymethyl)-6-methyl-1,4-dihydropyridine-3,5-dicarboxylate] was 100 to 1000 nM.

Another test addresses T2, Human Glucocorticoid Receptor (Homo sapiens, UniProt P04150).
T2 construct: endogenous in cells; host or cells: cytosol from IM-9 cell line
T2 sequence (P04150 1-777): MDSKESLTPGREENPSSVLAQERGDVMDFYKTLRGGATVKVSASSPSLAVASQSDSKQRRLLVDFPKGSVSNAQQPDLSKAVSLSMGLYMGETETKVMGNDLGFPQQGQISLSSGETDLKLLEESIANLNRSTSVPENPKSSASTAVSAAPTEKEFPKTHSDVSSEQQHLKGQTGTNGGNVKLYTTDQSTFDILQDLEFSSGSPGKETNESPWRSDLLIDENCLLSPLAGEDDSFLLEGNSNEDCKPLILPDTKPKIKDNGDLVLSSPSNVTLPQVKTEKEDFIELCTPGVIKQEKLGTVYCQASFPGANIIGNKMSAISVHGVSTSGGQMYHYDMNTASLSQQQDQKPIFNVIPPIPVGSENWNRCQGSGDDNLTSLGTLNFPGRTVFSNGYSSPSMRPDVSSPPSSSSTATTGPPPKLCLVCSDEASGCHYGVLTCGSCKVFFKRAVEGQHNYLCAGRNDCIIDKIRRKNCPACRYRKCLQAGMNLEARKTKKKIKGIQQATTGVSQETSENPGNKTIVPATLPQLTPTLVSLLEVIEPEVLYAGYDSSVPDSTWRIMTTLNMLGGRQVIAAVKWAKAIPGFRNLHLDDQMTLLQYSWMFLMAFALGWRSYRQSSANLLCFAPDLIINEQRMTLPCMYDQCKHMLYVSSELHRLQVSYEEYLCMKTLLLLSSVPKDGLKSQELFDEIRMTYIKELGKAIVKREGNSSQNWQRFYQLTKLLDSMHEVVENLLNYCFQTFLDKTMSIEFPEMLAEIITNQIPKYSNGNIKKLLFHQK
As to the kind of experiment: Competition Binding in IM-9 Human Glucocorticoid Receptor (GR IM-9). To be noted: cytosol from IM-9 cell line, 1.5 nM [3H]-Dexamethasone, 4° C. for 6 hours. In a few lines:
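Radioligand competition using 100 μg IM-9 cell cytosol and 1.5 nM [3H]-dexamethasone, incubated 6 h at 4° C in TES/molybdate buffer, pH 7.4. Filtration on PEI-treated GF/B filters, scintillation counting; nonspecific binding defined with 10 μM triamcinolone.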
Compound `CC(=O)C1=C(C)NC(C2CC2)=C(C(=O)OCc2ccccc2)C1c1csc2ncccc12` (stereo not shown) [Example J31, Benzyl 5-acetyl-2-cyclopropyl-6-methyl-4-(thieno[2,3-b]pyridin-3-yl)-1,4-dihydropyridine-3-carboxylate] yielded an IC50 below 100 nM.
On the same count and under the same terms, the value for `COC(=O)C1=C(C2CC2)NC(C)=C(C(C)=O)C1c1csc2c(C(=O)NC3CC3)cccc12` (stereo not shown) [Example J27, Methyl 5-acetyl-2-cyclopropyl-4-(7-(cyclopropylcarbamoyl)benzo[b]thiophen-3-yl)-6-methyl-1,4-dihydropyridine-3-carboxylate] was at least 1000 nM; that for `COC(=O)C1=C(C)NC(CO)=C(C(=O)OC)C1c1csc2c(C#N)cccc12` (stereo not shown) [Example C120, Dimethyl 4-(7-cyanobenzo[b]thiophen-3-yl)-2-(hydroxymethyl)-6-methyl-1,4-dihydropyridine-3,5-dicarboxylate] was below 100 nM.

The target in a further test is T3, Rat Androgen Receptor (Rattus norvegicus, UniProt P15207).
T3 construct: purchased Life Technologies A15880
T3 sequence (P15207 646-902 limits assumed): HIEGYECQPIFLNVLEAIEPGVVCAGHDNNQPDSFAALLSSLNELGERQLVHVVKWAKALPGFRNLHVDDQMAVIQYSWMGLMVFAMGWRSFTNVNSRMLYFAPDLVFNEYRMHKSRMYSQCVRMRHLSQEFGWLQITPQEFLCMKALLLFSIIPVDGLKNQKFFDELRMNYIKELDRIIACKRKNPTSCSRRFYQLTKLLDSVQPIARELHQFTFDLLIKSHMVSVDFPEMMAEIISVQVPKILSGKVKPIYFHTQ
As to the kind of experiment: Rat Androgen Receptor Binding (polarscreen AR competitor assay, fluorescence polarization). To be noted: displacement of Fluormone AL Green, 4 hours at RT, read-out: AR rat-fluorimetric. As to the method: Pharmacological Activity Rat Androgen Receptor Binding
The assay was carried out following the instructions of polarscreen AR competitor assay green kit (Life Technologies, Cat #.: A15880). Briefly, the test is based on measuring the changes of fluorescence polarization shown by the Fluormone AL Green. Thus, when the Fluormone is bound to the receptor, a fluorescence polarization is observed that diminishes when a ligand competes for the receptor binding site and the Fluormone gets displaced.
The inhibition values for each of the compounds are measured in duplicate at 1 and 10 μM and the plate is incubated for 4 hours at RT. Fluorescence polarization is the measured in a Tecan Infinite M1000 Pro reader (λexc=485 nm, λem=535 nm). In order to obtain a dose-response curve and calculate the potency of inhibition (expressed as IC50) for AR, a series of 1:10 dilutions in test in 1× buffer from 10 μM to 0.1 nM for each compound was carried out.
(In general: In fluorescence polarisation assays a small probe gives low polarisation when free and higher when bound to something large.)
As for `COC(=O)C1=C(C)NC(C)=C(C(C)=O)C1c1csc2ccc(C(=O)N3CCOCC3)cc12` (stereo not shown) [Example J18, Methyl 5-acetyl-2,6-dimethyl-4-(5-(morpholine-4-carbonyl)benzo[b]thiophen-3-yl)-1,4-dihydropyridine-3-carboxylate], the IC50 was at least 1000 nM.
For the compound `COCCC1=C(C(=O)OC)C(c2csc3ccccc23)C(C(C)=O)=C(C)N1` (stereo not shown) [Example C7, Methyl 5-acetyl-4-(benzo[b]thiophen-3-yl)-2-(2-methoxyethyl)-6-methyl-1,4-dihydropyridine-3-carboxylate], the IC50 was 100 to 1000 nM.
On the same count and under the same terms, with `COC(=O)C1=C(C2CC2)NC(C)=C(C(C)=O)C1c1csc2ccccc12` (stereo not shown) [Example J1, Methyl 5-acetyl-4-(benzo[b]thiophen-3-yl)-2-cyclopropyl-6-methyl-1,4-dihydropyridine-3-carboxylate] the figure was below 100 nM; with `CC(=O)C1=C(C)NC(C)=C(C(C)=O)C1c1csc2ccc(C(=O)O)cc12` [Example H8, 3-(3,5-diacetyl-2,6-dimethyl-1,4-dihydropyridin-4-yl)benzo[b]thiophene-5-carboxylic acid], at least 1000 nM; with `CC(=O)C1=C(C)NC(C)=C(C(C)=O)C1c1csc2ccc(NCc3ccccc3)cc12` [Example H6, 1,1′-(4-(5-(benzylamino)benzo[b]thiophen-3-yl)-2,6-dimethyl-1,4-dihydropyridine-3,5-diyl)bis(ethan-1-one)], at least 1000 nM.
Same read-out and setting: with `CC(=O)C1=C(C)NC(C)=C(C(=O)OC2CCCC2)C1c1csc2ccccc12` (stereo not shown) [Example C26, Cyclopentyl 5-acetyl-4-(benzo[b]thiophen-3-yl)-2,6-dimethyl-1,4-dihydropyridine-3-carboxylate] the figure was below 100 nM; with `CC(=O)C1=C(C)NC(C)=C(C(=O)OC2CCC(C)(C)CC2)C1c1csc2ccccc12` (stereo not shown) [Example C27, 4,4-dimethylcyclohexyl 5-acetyl-4-(benzo[b]thiophen-3-yl)-2,6-dimethyl-1,4-dihydropyridine-3-carboxylate], at least 1000 nM; with `COC(=O)C1=C(C)NC(C)=C(C(C)=O)C1c1csc2ccc(Br)cc12` (stereo not shown) [Example J12, Methyl 5-acetyl-4-(5-bromobenzo[b]thiophen-3-yl)-2,6-dimethyl-1,4-dihydropyridine-3-carboxylate], below 100 nM.
Still for that read-out and setting: with `COCC1=C(C(C)=O)C(c2csc3ccccc23)C(C(=O)OC)=C(C)N1` (stereo not shown) [Example C19, Methyl 5-acetyl-4-(benzo[b]thiophen-3-yl)-6-(methoxymethyl)-2-methyl-1,4-dihydropyridine-3-carboxylate] the figure was at least 1000 nM; with `COC(=O)C1=C(C)NC(C)=C(C(C)=O)C1c1csc2ccc(C#N)cc12` (stereo not shown) [Example J13, Methyl 5-acetyl-4-(5-cyanobenzo[b]thiophen-3-yl)-2,6-dimethyl-1,4-dihydropyridine-3-carboxylate], at least 1000 nM; with `CC(=O)C1=C(C2CC2)NC(C2CC2)=C(C(C)=O)C1c1csc2ccccc12` [Example G4, 1,1′-(4-(Benzo[b]thiophen-3-yl)-2,6-dicyclopropyl-1,4-dihydropyridine-3,5-diyl)diethanone], at least 1000 nM.
Consider `COC(=O)C1=C(C)NC(C)=C(C(C)=O)C1c1csc2ccccc12` (single isomer, unassigned) [Example A2, Methyl 5-acetyl-4-(benzo[b]thiophen-3-yl)-2,6-dimethyl-1,4-dihydro-pyridine-3-carboxylate], for which the IC50 lay within 100 to 1000 nM.
On the same count and under the same terms, with `CC(=O)C1=C(C)NC(C)=C(C(=O)OC2CCC2)C1c1csc2ccccc12` (stereo not shown) [Example C28, Cyclobutyl 5-acetyl-4-(benzo[b]thiophen-3-yl)-2,6-dimethyl-1,4-dihydropyridine-3-carboxylate] the figure was 100 to 1000 nM.
